Data from patent US20260167656A1, “PHOSPHORAMIDATE COMPOUNDS AND USES THEREOF” (ALLORION THERAPEUTICS INC, priority 2022, published 2026).

What was measured:
[1] = tested on: non-small cell lung cancer cell line H460; assay: In vitro human cancer cell line cytotoxicity (proliferation) assay in H460, CellTiter-Glo, 72 hours; format: cell-based; conditions: H460 cells, DMSO condition (no AKR1C3 inhibitor), read-out: CTG H460: Avg IC50 (nM) [Assay Condition: DMSO]
Method in brief: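 IC50s in nM come from CellTiter-Glo viability read after 72 h of compound exposure. Compounds went in from 10 mM DMSO stocks onto H460 cells, which had been plated at 3×10^3 per well and grown 24 h beforehand at 37 °C, 5% CO2.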

[2] = tested on: non-small cell lung cancer cell line H460; assay: H460 proliferation assay in the presence of 3 uM ASP9521 (AKR1C3 specific inhibitor); format: cell-based, human; conditions: H460 cells, CellTiter-Glo, 72 hours, in the presence of 3 uM ASP9521 added 4 hours prior to compounds; read-out: CTG H460: Avg IC50 (nM) [Assay Condition: ASP9521]
Method in brief: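 AKR1C3 blocked with 3 uM ASP9521 given 4 h ahead of test compounds. H460 cells, plated 24 h earlier, were then treated for 72 h at 37 °C in 5% CO2. CellTiter-Glo luminescence gave viability.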

SMILES	IC50 [1]	IC50 [2]	IC50 ([1]; Homo sapiens, NCI-H460, 72 h)
O=C1OCCN1c1cccc(Oc2c([N+](=O)[O-])ccc3c2CCC3OP(=O)(N2CC2)N2CC2)c1 (centres unmarked) [Example 71]	< 10 nM	31.9 nM	
O=C(c1cccc(Oc2cc3cc(COP(=O)(N4CC4)N4CC4)oc3cc2[N+](=O)[O-])c1)N1CCOCC1 [Example 556]	< 10 nM	1060 nM	
CN(C)C(=O)c1cncc(Oc2c([N+](=O)[O-])ccc3c2CC[C@@H]3OP(=O)(N2CC2)N2CC2)c1 [Example 252]	10 to 50 nM	2640 nM	
O=c1ccc(Oc2c([N+](=O)[O-])ccc3c2CCC3OP(=O)(N2CC2)N2CC2)cn1C1CC1 (centres unmarked) [Example 511]	< 10 nM	429 nM	
O=[N+]([O-])c1ccc2c(c1Oc1cccc(OCC(F)(F)F)c1)CC[C@@H]2OP(=O)(N1CC1)N1CC1 [Example 474]	< 10 nM	918 nM	
O=[N+]([O-])c1ccc2c(c1Oc1ccc(F)c(-c3ccccc3)c1)CC[C@@H]2OP(=O)(N1CC1)N1CC1 [Example 314]		1590 nM	< 10 nM
O=C(c1ccc(Oc2cc3c(cc2[N+](=O)[O-])CCC3OP(=O)(N2CC2)N2CC2)cc1)N1CCOCC1 (centres unmarked) [Example 161]	< 10 nM	339 nM	
CS(=O)(=O)c1ccc(Oc2c([N+](=O)[O-])ccc3c2CCC3OP(=O)(N2CC2)N2CC2)cc1 (centres unmarked) [Example 506]	< 10 nM	625 nM	
Cc1cccc(-c2ccc(Oc3c([N+](=O)[O-])ccc4c3CC[C@H]4OP(=O)(N3CC3)N3CC3)cc2)n1 [Example 279]	< 10 nM	1310 nM	
CN1Cc2cc(Oc3c([N+](=O)[O-])ccc4c3CCC4OP(=O)(N3CC3)N3CC3)ccc2C1=O (single isomer, unassigned) [Example 42]		123 nM	< 10 nM
Cc1csc(-c2ccc(Oc3c([N+](=O)[O-])ccc4c3CCC4OP(=O)(N3CC3)N3CC3)cc2)n1 (centres unmarked) [Example 289]	< 10 nM	1090 nM	
O=C(c1cccc(Oc2c([N+](=O)[O-])ccc3c2CCC3OP(=O)(N2CC2)N2CC2)c1)N1CC(F)(F)C1 (centres unmarked) [Example 66]		736 nM	< 10 nM
Cc1ccnc(-c2ccc(Oc3c([N+](=O)[O-])ccc4c3CC[C@@H]4OP(=O)(N3CC3)N3CC3)cc2F)n1 [Example 267, (S)-4-(3-fluoro-4-(4-methylpyrimidin-2-yl)phenoxy)-5-nitro-2,3-dihydro-1H-inden-1-yl di(aziridin-1-yl)phosphinate]		639 nM	< 10 nM
O=[N+]([O-])c1cc2c(cc1Oc1ccc(-c3ccccn3)cc1)C(OP(=O)(N1CC1)N1CC1)CC2 (centres unmarked) [Example 524]	< 10 nM	1190 nM	
O=[N+]([O-])c1ccc2c(c1Oc1cncc(C3CC3)c1)CC[C@@H]2OP(=O)(N1CC1)N1CC1 [Example 319]		521 nM	< 10 nM
O=[N+]([O-])c1ccc2c(c1Oc1cccc(OC3CCC3)c1)CC[C@H]2OP(=O)(N1CC1)N1CC1 [Example 464]	< 10 nM	1390 nM	
O=[N+]([O-])c1ccc2c(c1Oc1ccc(F)c(-n3ccc(F)n3)c1)CC[C@H]2OP(=O)(N1CC1)N1CC1 [Example 443]		571 nM	< 10 nM
O=C1c2cc(Oc3cc4c(cc3[N+](=O)[O-])CCC4OP(=O)(N3CC3)N3CC3)ccc2CN1C1COC1 (centres unmarked) [Example 163]	< 10 nM	1340 nM	
Cc1cncc(-c2ccc(Oc3c([N+](=O)[O-])ccc4c3CC[C@H]4OP(=O)(N3CC3)N3CC3)cc2)n1 [Example 285]	< 10 nM	754 nM	
CN1Cc2cc(Oc3cc4c(cc3[N+](=O)[O-])CCC4OP(=O)(N3CC3)N3CC3)ccc2C1=O (centres unmarked) [Example 154]		309 nM	< 10 nM
O=[N+]([O-])c1cc2oc(COP(=O)(N3CC3)N3CC3)cc2cc1Oc1cccc(-c2cccnc2)c1 [Example 537]		3710 nM	< 10 nM
O=C1COCCN1c1cccc(Oc2c([N+](=O)[O-])ccc3c2CCC3OP(=O)(N2CC2)N2CC2)c1 (centres unmarked) [Example 109]		6450 nM	10 to 50 nM
O=[N+]([O-])c1ccc2c(c1Oc1ccc(F)c(-c3ncccn3)c1)CC[C@@H]2OP(=O)(N1CC1)N1CC1 [Example 327]		1710 nM	< 10 nM
O=C1c2cc(Oc3c([N+](=O)[O-])ccc4c3CC[C@@H]4OP(=O)(N3CC3)N3CC3)ccc2CN1C1CC1 (single isomer, unassigned) [Example 39]		561 nM	< 10 nM
O=C(NC1CCC1)c1ccc(Oc2cc3c(cc2[N+](=O)[O-])CCC3OP(=O)(N2CC2)N2CC2)cc1 (centres unmarked) [Example 516]	< 10 nM	778 nM	
